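Five concentrations, 48 hours, 96-well plates. GI50 = concentration required for 50% inhibition of growth.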 Calls of active or inactive are those of the source. No stated cut-off is given here; in the data, active = GI50 up to about 1.1 µM and inactive = higher.
What was measured:
Assay in all cases: NCI tumour cell line growth inhibition, 48 h
LOX IMVI = tested on: LOX IMVI
UACC-62 = tested on: UACC-62
RPMI-8226 = tested on: RPMI-8226
PC-3 = tested on: PC-3
A498 = tested on: A498
MCF7 = tested on: MCF7
786-0 = tested on: 786-0
NCI-H226 = tested on: NCI-H226
SF-295 = tested on: SF-295
SF-268 = tested on: SF-268
RXF 393 = tested on: RXF 393
SNB-19 = tested on: SNB-19
COLO 205 = tested on: COLO 205
A549 = tested on: A549
HCT-15 = tested on: HCT-15
SN12C = tested on: SN12C
OVCAR-4 = tested on: OVCAR-4
UO-31 = tested on: UO-31
NCI-H460 = tested on: NCI-H460
MOLT-4 = tested on: MOLT-4

SMILES | GI50 (LOX IMVI) | GI50 (UACC-62) | GI50 (RPMI-8226) | GI50 (PC-3) | GI50 (A498) | GI50 (MCF7) | GI50 (786-0) | GI50 (NCI-H226) | GI50 (SF-295) | GI50 (SF-268) | GI50 (RXF 393) | GI50 (SNB-19) | GI50 (COLO 205) | GI50 (A549) | GI50 (HCT-15) [µM] | GI50 (SN12C) | GI50 (OVCAR-4) | GI50 (UO-31) | GI50 (NCI-H460) | GI50 (MOLT-4)
COc1ccc(C(=O)/C=C2\C(=O)Nc3ccc(Br)cc32)cc1 | 1.99 µM (inactive) | 13.9 µM (inactive) | 1.72 µM (inactive) | 6.68 µM (inactive) | 17.9 µM (inactive) | 6.44 µM (inactive) | 1.97 µM (inactive) | 11.1 µM (inactive) | 16.2 µM (inactive) | 16.4 µM (inactive) | 2.29 µM (inactive) | 16.7 µM (inactive) | 2.3 µM (inactive) | 15.3 µM (inactive) | 2.13 | 2.88 µM (inactive) | 16.5 µM (inactive) | 2.24 µM (inactive) | 10 µM (inactive) | 2.41 µM (inactive)
Cc1[nH]c(=O)nc(NCCNCCO)c1C(=O)Nc1c2ccccc2nc2ccccc12 | > 100 µM (inactive) | > 100 µM (inactive) | > 100 µM (inactive) | > 100 µM (inactive) | > 100 µM (inactive) | > 100 µM (inactive) | > 100 µM (inactive) | > 100 µM (inactive) | > 100 µM (inactive) | – | > 100 µM (inactive) | > 100 µM (inactive) | > 100 µM (inactive) | > 100 µM (inactive) | > 100 | > 100 µM (inactive) | > 100 µM (inactive) | > 100 µM (inactive) | – | > 100 µM (inactive)
Nc1cc2c3c(cccc3c1)C(=O)N(c1ccc(OCCN3CCCCC3)cc1)C2=O | 14 µM (inactive) | 19.1 µM (inactive) | 18.3 µM (inactive) | 17.4 µM (inactive) | 16 µM (inactive) | 19.1 µM (inactive) | 16.9 µM (inactive) | 18.6 µM (inactive) | 16.9 µM (inactive) | 19.1 µM (inactive) | 16.7 µM (inactive) | 18.3 µM (inactive) | 13.4 µM (inactive) | 13.9 µM (inactive) | 12.7 | 15.9 µM (inactive) | 17.1 µM (inactive) | 9.73 µM (inactive) | – | 12.1 µM (inactive)
OCCCCn1cc(Cn2ncc3c(NCc4ccccc4)ncnc32)nn1 | > 100 µM (inactive) | > 100 µM (inactive) | > 100 µM (inactive) | > 100 µM (inactive) | > 100 µM (inactive) | > 100 µM (inactive) | > 100 µM (inactive) | > 100 µM (inactive) | > 100 µM (inactive) | > 100 µM (inactive) | > 100 µM (inactive) | > 100 µM (inactive) | > 100 µM (inactive) | > 100 µM (inactive) | > 100 | > 100 µM (inactive) | > 100 µM (inactive) | > 100 µM (inactive) | > 100 µM (inactive) | 53.1 µM (inactive)
CC(C)/C(Cl)=N\OC(=O)Nc1ccc(F)cc1 | 2.05 µM (inactive) | 16 µM (inactive) | 1.94 µM (inactive) | 17.4 µM (inactive) | 14.2 µM (inactive) | 4.62 µM (inactive) | 5.18 µM (inactive) | 18.2 µM (inactive) | 14.4 µM (inactive) | 24.6 µM (inactive) | 16.1 µM (inactive) | 19.2 µM (inactive) | 2.63 µM (inactive) | 17.4 µM (inactive) | 3.48 | 5.87 µM (inactive) | – | 5.85 µM (inactive) | 18.1 µM (inactive) | 1.66 µM (inactive)
C=C1N(S(=O)(=O)c2ccc(C)cc2)C(=O)OCC12CCCC2 | > 100 µM (inactive) | 34.6 µM (inactive) | > 100 µM (inactive) | 34.6 µM (inactive) | > 100 µM (inactive) | > 100 µM (inactive) | > 100 µM (inactive) | > 100 µM (inactive) | > 100 µM (inactive) | – | > 100 µM (inactive) | > 100 µM (inactive) | 72.8 µM (inactive) | > 100 µM (inactive) | 94 | – | 72.6 µM (inactive) | 84.3 µM (inactive) | 96.4 µM (inactive) | 77.4 µM (inactive)
COc1ccc(-n2c(C)nc3ccc(/N=C/c4ccccc4)cc3c2=O)cc1 | > 100 µM (inactive) | > 100 µM (inactive) | 51.2 µM (inactive) | > 100 µM (inactive) | > 100 µM (inactive) | > 100 µM (inactive) | > 100 µM (inactive) | > 100 µM (inactive) | > 100 µM (inactive) | > 100 µM (inactive) | > 100 µM (inactive) | > 100 µM (inactive) | > 100 µM (inactive) | – | > 100 | > 100 µM (inactive) | > 100 µM (inactive) | > 100 µM (inactive) | > 100 µM (inactive) | > 100 µM (inactive)
O=c1[nH]nc(Cc2ccccc2)n1/N=C/c1ccco1 | > 100 µM (inactive) | > 100 µM (inactive) | > 100 µM (inactive) | > 100 µM (inactive) | 45.9 µM (inactive) | 48.1 µM (inactive) | > 100 µM (inactive) | > 100 µM (inactive) | > 100 µM (inactive) | > 100 µM (inactive) | 24 µM (inactive) | > 100 µM (inactive) | > 100 µM (inactive) | > 100 µM (inactive) | > 100 | > 100 µM (inactive) | > 100 µM (inactive) | > 100 µM (inactive) | > 100 µM (inactive) | 99.5 µM (inactive)
Cc1ccc2c(ccc3c[n+]4ccccc4c(C)c32)c1.[O-][Cl+3]([O-])([O-])[O-] | 11.7 µM (inactive) | – | 4.15 µM (inactive) | 0.904 µM (active) | 13.4 µM (inactive) | 2.89 µM (inactive) | 2.51 µM (inactive) | 1.28 µM (inactive) | 1.39 µM (inactive) | 1.29 µM (inactive) | 26.4 µM (inactive) | 0.451 µM (active) | 1.32 µM (inactive) | 0.373 µM (active) | > 100 | 0.402 µM (active) | 2.07 µM (inactive) | 20.7 µM (inactive) | > 100 µM (inactive) | 7.91 µM (inactive)
N=C(N)Nc1ccc(CC(N)C(=O)O)cc1 (configuration not stated) | > 12.5 µM (inactive) | > 12.5 µM (inactive) | > 12.5 µM (inactive) | > 12.5 µM (inactive) | > 12.5 µM (inactive) | > 12.5 µM (inactive) | > 12.5 µM (inactive) | > 12.5 µM (inactive) | > 12.5 µM (inactive) | > 12.5 µM (inactive) | > 12.5 µM (inactive) | – | > 12.5 µM (inactive) | > 12.5 µM (inactive) | > 12.5 | > 12.5 µM (inactive) | > 12.5 µM (inactive) | > 12.5 µM (inactive) | – | > 12.5 µM (inactive)
Nc1cccc(S(=O)(=O)Nc2nnc(S(N)(=O)=O)s2)c1 | > 100 µM (inactive) | > 100 µM (inactive) | > 100 µM (inactive) | > 100 µM (inactive) | > 100 µM (inactive) | > 100 µM (inactive) | > 100 µM (inactive) | > 100 µM (inactive) | > 100 µM (inactive) | > 100 µM (inactive) | > 100 µM (inactive) | > 100 µM (inactive) | > 100 µM (inactive) | > 100 µM (inactive) | > 100 | – | > 100 µM (inactive) | > 100 µM (inactive) | > 100 µM (inactive) | > 100 µM (inactive)
S=c1c2cc(I)ccc2nc(S)n1Cc1ccccc1 | 3.4 µM (inactive) | – | 2.95 µM (inactive) | 3.32 µM (inactive) | 3.33 µM (inactive) | 5.42 µM (inactive) | 5.96 µM (inactive) | 5.46 µM (inactive) | 2.99 µM (inactive) | 6.43 µM (inactive) | 2.17 µM (inactive) | 4.32 µM (inactive) | 10.7 µM (inactive) | 3.68 µM (inactive) | 3.78 | 3.16 µM (inactive) | 3.62 µM (inactive) | 3.37 µM (inactive) | 3.28 µM (inactive) | 3.18 µM (inactive)
O=C1OC(c2ccc([N+](=O)[O-])cc2)=N/C1=C\c1ccc(Cl)cc1 | > 100 µM (inactive) | > 100 µM (inactive) | > 100 µM (inactive) | > 100 µM (inactive) | > 100 µM (inactive) | > 100 µM (inactive) | > 100 µM (inactive) | > 100 µM (inactive) | > 100 µM (inactive) | > 100 µM (inactive) | 62.8 µM (inactive) | > 100 µM (inactive) | > 100 µM (inactive) | > 100 µM (inactive) | > 100 | > 100 µM (inactive) | > 100 µM (inactive) | – | > 100 µM (inactive) | > 100 µM (inactive)
c1ccc2c(c1)CCN1CCc3c([nH]c4ccccc34)C21 (configuration not stated) | 22.8 µM (inactive) | 31.6 µM (inactive) | 23 µM (inactive) | 26.6 µM (inactive) | 22.9 µM (inactive) | 63.7 µM (inactive) | 38.3 µM (inactive) | 41.7 µM (inactive) | 20 µM (inactive) | 30.8 µM (inactive) | 21.5 µM (inactive) | 67.5 µM (inactive) | 21.4 µM (inactive) | 37.1 µM (inactive) | 36.9 | 32.7 µM (inactive) | 35.2 µM (inactive) | 28.6 µM (inactive) | 38.7 µM (inactive) | 24.5 µM (inactive)
CC[C@@]1(O)C(=O)OCc2c1cc1n(c2=O)Cc2cc3cc(OC)ccc3nc2-1 | 0.0221 µM (active) | 0.00244 µM (active) | 0.107 µM (active) | 0.0364 µM (active) | 0.415 µM (active) | 0.0041 µM (active) | 0.00923 µM (active) | 0.016 µM (active) | 0.008 µM (active) | 0.00509 µM (active) | 0.016 µM (active) | 0.00843 µM (active) | 0.116 µM (active) | 0.0249 µM (active) | 0.116 | 0.0245 µM (active) | 0.00845 µM (active) | 0.0333 µM (active) | 0.00607 µM (active) | 0.00458 µM (active)

Reference: ChEMBL document CHEMBL1201862, “PubChem BioAssay data set” (2004)
